PubChem BioAssay AID330 (DTP/NCI, 2004)
Several values for one entry are separate records, joined by “and”; a condition that tells them apart may be missing. Equal values may be shown once. Where a name gives a salt, the structure may show the parent alone. Toxic doses and inconclusive results are not listed. The calls were made as follows: active = survival T/C of 150% or more; inactive = T/C below 125% in these data. Peptide text beside a SMILES is read from it. * marks the point of attachment. Tfa = O=C(C(F)(F)F)*

Test system: P388 leukemia ip, CD2F1 mice, survival T/C
Experiment: NCI In Vivo Anticancer Drug Screen. Data for tumor model P388 Leukemia (intraperitoneal) in CD2F1 (CDF1) mice
Conditions: endpoint: median survival time, higher = longer survival
Method in brief: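 Mice carrying the transplanted tumor received test compound or vehicle. Survival was recorded in each group, and the value is the treated-group measurement divided by that of the vehicle-treated control group.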

[1] = dose: 60.0 mg/kg/injection, schedule: Q01DX005 (ip), vehicle: Klucel (hydroxypropylcellulose) (HPC)
[2] = dose: 120.0 mg/kg/injection, schedule: Q01DX005 (ip), vehicle: Klucel (hydroxypropylcellulose) (HPC)
[3] = dose: 50.0 mg/kg/injection, schedule: Q01DX005 (ip), vehicle: Klucel (hydroxypropylcellulose) (HPC)
[4] = dose: 100.0 mg/kg/injection, schedule: Q01DX005 (ip), vehicle: Klucel (hydroxypropylcellulose) (HPC)
[5] = dose: 200.0 mg/kg/injection, schedule: Q01DX005 (ip), vehicle: Klucel (hydroxypropylcellulose) (HPC)
[6] = dose: 100.0 mg/kg/injection, schedule: Q01DX001 (ip), vehicle: Klucel (hydroxypropylcellulose) (HPC)
[7] = dose: 200.0 mg/kg/injection, schedule: Q01DX001 (ip), vehicle: Klucel (hydroxypropylcellulose) (HPC)
[8] = dose: 50.0 mg/kg/injection, schedule: Q01DX009 (ip), vehicle: saline with Tween-80
[9] = dose: 100.0 mg/kg/injection, schedule: Q01DX009 (ip), vehicle: saline with Tween-80
[10] = dose: 60.0 mg/kg/injection, schedule: Q01DX005 (ip), vehicle: saline with Tween-80
[11] = dose: 120.0 mg/kg/injection, schedule: Q01DX005 (ip), vehicle: saline with Tween-80
[12] = dose: 240.0 mg/kg/injection, schedule: Q01DX005 (ip), vehicle: saline with Tween-80

Measured: T/C

COC(=O)CC(NC(=O)C1CCCN1C(=O)C(F)(F)F)C(=O)OC (stereo not drawn) (Tfa-Pro-Asp(OMe)-OMe; configuration not given here)
inactive: dose: 100.0 mg/kg/injection, schedule: Q01DX001 (ip), vehicle: saline with Tween-80 104 % of control | dose: 200.0 mg/kg/injection, schedule: Q01DX001 (ip), vehicle: saline with Tween-80 101 % of control and 100 % of control | dose: 400.0 mg/kg/injection, schedule: Q01DX001 (ip), vehicle: saline with Tween-80 104 % of control

Cn1c(=O)oc2cc(C(=O)CN3CCN(c4cccc(C(F)(F)F)c4)CC3)ccc21
inactive: [1] 92 % of control | [2] 93 % of control

O=c1n(-c2ccccc2)c(=O)n2n1CC(c1ccccc1)=N2
inactive: dose: 100.0 mg/kg/injection, schedule: Q01DX009 (ip), vehicle: other 99 % of control | dose: 200.0 mg/kg/injection, schedule: Q01DX009 (ip), vehicle: other 91 % of control | dose: 400.0 mg/kg/injection, schedule: Q01DX009 (ip), vehicle: other 89 % of control

Cc1c(O)c(=O)ccn1CCN
inactive: dose: 50.0 mg/kg/injection, schedule: Q01DX005 (ip), vehicle: saline 98 % of control and 102 % of control | dose: 100.0 mg/kg/injection, schedule: Q01DX005 (ip), vehicle: saline 100 % of control and 109 % of control | dose: 200.0 mg/kg/injection, schedule: Q01DX005 (ip), vehicle: saline 99 % of control and 104 % of control | dose: 400.0 mg/kg/injection, schedule: Q01DX005 (ip), vehicle: saline 91 % of control and 95 % of control

Cc1c[nH]c2nc(C)n(-c3ccccc3F)c(=N)c12
inactive: [3] 99 % of control | [4] 91 % of control

Nc1cc2nc3ccccc3oc-2cc1=O
inactive: [3] 105 % of control | [4] 101 % of control | [5] 97 % of control

CC(=O)CC(=O)c1ccccc1.CC(=O)CC(=O)c1ccccc1.[CH3][Sn][CH3]
inactive: [6] 95 % of control | [7] 99 % of control | dose: 400.0 mg/kg/injection, schedule: Q01DX001 (ip), vehicle: Klucel (hydroxypropylcellulose) (HPC) 96 % of control

CC[CH2][Pb]([CH2]CC)([CH2]CC)[O]C(=O)C1CCCCC1
inactive: dose: 1.25 mg/kg/injection, schedule: Q01DX009 (ip), vehicle: saline with Tween-80 105 % of control and 97 % of control | dose: 2.5 mg/kg/injection, schedule: Q01DX009 (ip), vehicle: saline with Tween-80 111 % of control and 122 % of control | dose: 5.0 mg/kg/injection, schedule: Q01DX009 (ip), vehicle: saline with Tween-80 122 % of control | dose: 10.0 mg/kg/injection, schedule: Q01DX009 (ip), vehicle: saline with Tween-80 114 % of control

CCCCOC1OCN(CCC)CC1(C)C (stereo not drawn)
inactive: [8] 111 % of control and 113 % of control | [9] 122 % of control

O=C1C(Cl)=C(c2ccccc2)C(=O)C(Cl)=C1c1ccccc1
inactive: dose: 12.5 mg/kg/injection, schedule: Q01DX009 (ip), vehicle: saline with Tween-80 100 % of control | dose: 25.0 mg/kg/injection, schedule: Q01DX009 (ip), vehicle: saline with Tween-80 109 % of control | [8] 109 % of control

COC1(C2COc3cc(OCc4ccccc4)ccc3C2=O)C=C2OCOC2=CC1=O (stereo not drawn)
inactive: dose: 12.5 mg/kg/injection, schedule: Q01DX005 (ip), vehicle: Klucel (hydroxypropylcellulose) (HPC) 99 % of control | dose: 25.0 mg/kg/injection, schedule: Q01DX005 (ip), vehicle: Klucel (hydroxypropylcellulose) (HPC) 96 % of control | [3] 89 % of control

Clc1ccc2c(NCCCCCCCCNc3c4ccccc4nc4cc(Cl)ccc34)c3ccccc3nc2c1
inactive: dose: 0.63 mg/kg/injection, schedule: Q01DX009 (ip), vehicle: other 112 % of control | dose: 1.25 mg/kg/injection, schedule: Q01DX009 (ip), vehicle: other 108 % of control | dose: 2.5 mg/kg/injection, schedule: Q01DX009 (ip), vehicle: other 110 % of control | dose: 3.75 mg/kg/injection, schedule: Q01DX009 (ip), vehicle: other 108 % of control | dose: 5.0 mg/kg/injection, schedule: Q01DX009 (ip), vehicle: other 112 % of control | dose: 7.5 mg/kg/injection, schedule: Q01DX009 (ip), vehicle: other 110 % of control | dose: 10.0 mg/kg/injection, schedule: Q01DX009 (ip), vehicle: other 110 % of control | dose: 15.0 mg/kg/injection, schedule: Q01DX009 (ip), vehicle: other 112 % of control | dose: 20.0 mg/kg/injection, schedule: Q01DX009 (ip), vehicle: other 120 % of control

[O-]c1n[n+](-c2ccccc2)no1
inactive: dose: 3.13 mg/kg/injection, schedule: Q01DX009 (ip), vehicle: other 97 % of control | dose: 6.25 mg/kg/injection, schedule: Q01DX009 (ip), vehicle: other 96 % of control | dose: 12.5 mg/kg/injection, schedule: Q01DX009 (ip), vehicle: other 109 % of control | dose: 25.0 mg/kg/injection, schedule: Q01DX009 (ip), vehicle: other 101 % of control

CCC(=O)Cc1nc2n(c1O)C(=N)N=N2
inactive: dose: 60.0 mg/kg/injection, schedule: Q01DX005 (ip), vehicle: saline 98 % of control | dose: 120.0 mg/kg/injection, schedule: Q01DX005 (ip), vehicle: saline 98 % of control | dose: 240.0 mg/kg/injection, schedule: Q01DX005 (ip), vehicle: saline 98 % of control

Nc1c(Cl)cc(Cl)cc1Cl
inactive: dose: 100.0 mg/kg/injection, schedule: Q04DX003 (ip), vehicle: alcohol 108 % of control | dose: 200.0 mg/kg/injection, schedule: Q04DX003 (ip), vehicle: alcohol 100 % of control | dose: 400.0 mg/kg/injection, schedule: Q04DX003 (ip), vehicle: alcohol 100 % of control

CC(C)COCC1COC2(OCC(C)(C)C2OC(=O)Nc2ccccc2)O1 (stereo not drawn)
inactive: [1] 95 % of control | [2] 94 % of control | dose: 240.0 mg/kg/injection, schedule: Q01DX005 (ip), vehicle: Klucel (hydroxypropylcellulose) (HPC) 91 % of control

Cc1ccc(-c2cc3cc4c(cc3[nH]2)Sc2ccccc2O4)cc1
inactive: [6] 98 % of control | [7] 89 % of control

CC(C)(C)C(CCC(=O)O)CC(=O)O (stereo not drawn)
inactive: [8] 100 % of control | [9] 95 % of control | dose: 100.0 mg/kg/injection, schedule: Q04DX003 (ip), vehicle: saline 95 % of control | dose: 200.0 mg/kg/injection, schedule: Q01DX009 (ip), vehicle: saline with Tween-80 100 % of control | dose: 200.0 mg/kg/injection, schedule: Q04DX003 (ip), vehicle: saline 91 % of control

COc1cc(CBr)ccc1OCc1ccccc1
inactive: dose: 12.5 mg/kg/injection, schedule: Q01DX009 (ip), vehicle: distilled water + Tween-80 111 % of control | dose: 25.0 mg/kg/injection, schedule: Q01DX009 (ip), vehicle: distilled water + Tween-80 101 % of control | dose: 50.0 mg/kg/injection, schedule: Q01DX009 (ip), vehicle: distilled water + Tween-80 108 % of control | dose: 100.0 mg/kg/injection, schedule: Q01DX009 (ip), vehicle: distilled water + Tween-80 108 % of control

Nc1nc2c(C(=O)c3cccs3)nnn2c2cccc(Cl)c12
inactive: [10] 99 % of control | [11] 100 % of control | [12] 104 % of control

C=C(C)OC1NC(=O)Oc2ccccc21 (stereo not drawn)
inactive: [10] 98 % of control | [11] 109 % of control | [12] 100 % of control

CC(C)NNC(=O)c1ccncc1
inactive: dose: 12.5 mg/kg/injection, schedule: Q01DX009 (ip), vehicle: saline 96 % of control | dose: 25.0 mg/kg/injection, schedule: Q01DX009 (ip), vehicle: saline 101 % of control | dose: 50.0 mg/kg/injection, schedule: Q01DX009 (ip), vehicle: saline 103 % of control | dose: 100.0 mg/kg/injection, schedule: Q01DX009 (ip), vehicle: saline 96 % of control | dose: 200.0 mg/kg/injection, schedule: Q01DX009 (ip), vehicle: saline 98 % of control | dose: 400.0 mg/kg/injection, schedule: Q01DX009 (ip), vehicle: saline 64 % of control

Brc1ccc2[nH]c3nc(N/N=C/c4cccnc4)nnc3c2c1
inactive: dose: 100.0 mg/kg/injection, schedule: Q04DX002 (ip), vehicle: saline with Tween-80 93 % of control | dose: 200.0 mg/kg/injection, schedule: Q04DX002 (ip), vehicle: saline with Tween-80 91 % of control | dose: 400.0 mg/kg/injection, schedule: Q04DX002 (ip), vehicle: saline with Tween-80 99 % of control

O=C(O)C[CH2][Sn](=[O])[CH2]CC(=O)O
inactive: [3] 101 % of control | [4] 101 % of control | [5] 102 % of control
